Measurements from article PMC7997032, “Organic synthesis and anti-influenza A virus activity of cyclobakuchiols A, B, C, and D” (PLoS ONE, 2021).
“And” between values parts separate entries of the source, which are not always exact repeats. Equal values may be shown once. Read-outs that look alike come from different tables or passages of the source.

What was measured:
[1] = system: A/CA/7/09 viral NA; design: method as in PMID 26446794; settings: cited from earlier work
[2] = system: A/PR/8/34 viral HA; design: method as in PMID 26446794; settings: cited from earlier work
[3] = system: A/PR/8/34 virus; type: cell-based
[4] = system: A/WSN/33 virus; assay: Immunofluorescence staining of viral NP in influenza A virus-infected MDCK cells; settings: for percentage of influenza A NP-positive cells relative to DMSO: 24 h, Fig 4D; for NP/DAPI (%) ave: WSN
Method: (§1) MDCK cells were seeded on a 96-well plate at 1 × 10^4 cells/well. […] Each mixture was added to the cells at 37°C in the presence of 5% CO2. […] After influenza A viral infection for 24 h, the cells were fixed with 4% paraformaldehyde in phosphate-buffered saline (PBS) for 30 min at 4°C and subsequently permeabilized by the addition of 0.3% Triton X-100 for 20 min at 25°C. A mouse primary antibody was used to detect the NP of A/PR/8/34 or A/WSN/33 viruses (FluA-NP 4F1; SouthernBiotech, AL, USA). Alexa Fluor488-conjugated goat anti-mouse IgG (H + L) antibody (Thermo Fisher Scientific) was used as the secondary antibody. Cell nuclei were then stained using diamidino-2-phenylindole (DAPI) (Thermo Fisher Scientific). Wells were photographed using a fluorescence microscope (BIOREVO BZ-X700; Keyence, Osaka, Japan). The proportion of influenza A NP-positive cells per DAPI-positive cells was calculated based on measurements recorded using BZ-X Analyzer software (Keyence).

[5] = system: A/PR/8/34 viral NA; design: method as in PMID 26446794; settings: cited from earlier work
[6] = system: A/WSN/33 virus; assay: Influenza A viral growth assay (viral titer of culture media); type: cell-based, influenza A H1N1 virus; settings: for viral titer of conditioned media compared with DMSO: A/WSN/34 as printed, 12.5 μM
[7] = system: Nrf2; assay: Nrf2 reporter assay (dual luciferase system) in MDCK cells; type: cell-based, canine
[8] = system: A/PR/8/34 virus; assay: RT-qPCR of viral mRNAs (NP, NS1, PA, PB1, PB2, M2) in infected MDCK cells; type: cell-based, influenza A H1N1 virus
[9] = system: NAD(P)H quinone oxidoreductase 1 (Nqo1); assay: RT-qPCR of Nqo1 mRNA in MDCK cells with or without A/PR/8/34 virus; type: cell-based, canine; settings: for NQO1 Canis lupus mRNA, ave / NQO1 Canis lupus mRNA, individual replicates: 12.5uM, MDCK, relative to virus - DMSO; for NQO1 Canis lupus mRNA, ave: ave of #1-3 exp; for NQO1 Canis lupus mRNA, individual replicates: replicates 1-3 of #1, #2, #3 exp
[10] = system: A/CA/7/09 viral HA; design: method as in PMID 26446794; settings: cited from earlier work
[11] = system: A/WSN/33 virus; assay: Viability of influenza A virus-infected MDCK cells by naphthol blue-black staining; type: cell-based, influenza A H1N1 virus; settings: A/WSN/33, MOI 10, 72 h, 0.4–25 μM
Method: MDCK cells were seeded on a 96-well plate (1 × 10^4 cells/well). 2–5 (0.4–25 μM) were mixed with A/PR/8/34, A/CA/7/09, or A/WSN/33 viruses in 10% FBS-supplemented growth medium at a multiplicity of infection (MOI) of ten. DMSO (0.004–1%) or 1 (0.4–25 μM) were used as negative or positive controls, respectively. […] After incubation, the cells were stained with naphthol blue–black, as previously described. Viable cells in each well were stained blue, whereas dead cells remained unstained.

[12] = system: canine interferon-β (Ifn-β); assay: RT-qPCR of Ifn-β mRNA in MDCK cells with or without A/PR/8/34 virus; type: cell-based; settings: for MDCK IFN-b mRNA, ave / MDCK IFN-b mRNA, individual replicates: 12.5uM, relative to virus - DMSO; for MDCK IFN-b mRNA, ave: ave of #1-3 exp; for MDCK IFN-b mRNA, individual replicates: replicates 1-3 of #1, #2, #3 exp
[13] = system: A/PR/8/34 virus; assay: Influenza A viral growth assay (viral titer of culture media); type: cell-based, influenza A H1N1 virus; design: viral titer of culture media, individual replicate / viral titer of culture media, ave: unit not given here
[14] = system: recombinant A/PR/8/34 viral HA protein; design: method as in PMID 26446794; settings: cited from earlier work
[15] = system: A/PR/8/34 virus; assay: Immunofluorescence staining of viral NP in influenza A virus-infected MDCK cells; settings: for NP/DAPI (%) ave: average of 9 wells; for NP/DAPI (%): single well
Method: as §1

[16] = 12.5 μM, 24h WB, average of 3 experiments
[17] = 12.5 μM, 24h WB, single experiment
[18] = 12.5 μM, 24 h post-infection, Fig 7C
[19] = MDCK cells, PR8 virus, relative to DMSO (about 1), ave of #1-3 exp (9 values)
[20] = MDCK cells, PR8 virus, relative to DMSO, replicates 1-3 of #1, #2, #3 exp

Compound: C=C[C@@](C)(/C=C/c1ccc(O)cc1)CCC=C(C)C [(+)-(S)-bakuchiol, reference compound]
- inhibition of viral NA activity [1]: did not inhibit
- inhibition of hemagglutination of chicken red blood cells [2]: did not inhibit
- expression of NP and NS1 proteins compared with DMSO (western blot) ([3]; 12.5 μM, 8, 12 or 24 h post-infection): reduced
- NP/b-actin ave [3, 16]: 0.4577
- NS1/b-actin ave [3, 16]: 0.476
- NP mean (western blot signal intensity, ImageJ) [3, 17]: 41.483 and 67.678 and 82.727
- NS1/b-actin [3, 17]: 0.411 and 0.4433 and 0.5737
- NS1 mean (western blot signal intensity, ImageJ) [3, 17]: 69.425 and 77.937 and 55.734
- expression level of NP protein compared with the 4 or 5 treatment groups [3, 18]: significantly reduced
- expression levels of NP or NS1 proteins from signal intensities compared with DMSO [3, 18]: significantly reduced
- percentage of influenza A NP-positive cells relative to DMSO ([4]; A/WSN/33, 12.5 μM): significantly reduced
- percentage of influenza A NP-positive cells relative to DMSO ([4]; A/WSN/33, 3.1–6.3 μM): did not significantly reduce
- NP/DAPI (%) ave ([4]; 3.13uM, ave of 9 values (3 exp)): 23.4639%
- NP/DAPI (%) ave ([4]; 6.25uM, ave of 9 values (3 exp)): 22.221%
- NP/DAPI (%) ave ([4]; 12.5uM, ave of 9 values (3 exp)): 22.092%
- NP/DAPI (%) ave ([4]; 25uM, ave of 9 values (3 exp)): 25.1439%
- NP/DAPI (%) ave ([4]; ave summary, 3.13%): 23.4639%
- NP/DAPI (%) ave ([4]; ave summary, 6.25%): 22.221%
- NP/DAPI (%) ave ([4]; ave summary, 12.50%): 22.092%
- NP/DAPI (%) ave ([4]; ave summary, 25%): 25.1439%
- inhibition of viral NA activity [5]: did not inhibit
- viral titer of culture media, ave ([6]; A/WSN/33 (WSN), 12.5uM, 12h, average of #1-3 exp (n=9)): 15811.1
- viral titer of conditioned media compared with DMSO ([6]; 48–72 h): not reduced
- viral titer of conditioned media compared with DMSO ([6]; 24 h): significantly reduced
- Nrf2 activation (reporter assay) in contrast to DMSO ([7]; 12.5 μM, 24 h, MDCK cells): induce Nrf2 activation
- pNQO1-ARE-Luc NRF2 reporter assay, ave ([7]; 12.5uM, relative to DMSO trans+, ave of #1-3 exp): 1.302
- pNQO1-ARE-Luc NRF2 reporter assay, individual replicates ([7]; 12.5uM, relative to DMSO trans+, two values each of #1, #2, #3 exp): 1.091 and 1.274 and 1.491 and 1.4074 and 1.544 and 1.002
- reduction in the level of NP mRNA compared with 4 and 5 ([8]; 12.5 μM, 24 h, Fig 6A): significantly stronger
- reduction in the level of PB2 mRNA compared with 5 ([8]; 12.5 μM, 24 h, Fig 6E): significantly stronger
- relative mRNA expression levels of viral genes (NP, NS1, PA, PB1, PB2, M2) compared with DMSO ([8]; 12.5 μM, MOI 0.1, 24 h): significantly decreased
- PR8 NP gene expression qPCR, ave ([8]; MDCK PR8, NP mRNA, relative (DMSO about 1), average of #1-3 exp (n=9)): 0.01761
- PR8 NP gene expression qPCR, individual replicate ([8]; MDCK PR8, NP mRNA, relative (DMSO about 1), replicates of #1-3 exp): 0.006615 and 0.02549 and 0.02199 and 0.02377 and 0.03127 and 0.01502 and 0.01903 and 0.00944 and 0.005898
- PR8 NS1 gene expression qPCR, ave ([8]; MDCK PR8, NS1 mRNA, relative (DMSO about 1), average of #1-3 exp (n=9)): 0.01277
- PR8 NS1 gene expression qPCR, individual replicate ([8]; MDCK PR8, NS1 mRNA, relative (DMSO about 1), replicates of #1-3 exp): 0.005751 and 0.01688 and 0.01532 and 0.01756 and 0.02149 and 0.008029 and 0.01283 and 0.01159 and 0.005477
- PR8 PA gene expression qPCR, ave ([8]; MDCK PR8, PA mRNA, relative (DMSO about 1), average of #1-3 exp (n=9)): 0.01401
- PR8 PA gene expression qPCR, individual replicate ([8]; MDCK PR8, PA mRNA, relative (DMSO about 1), replicates of #1-3 exp): 0.007199 and 0.01835 and 0.01386 and 0.0158 and 0.019 and 0.01338 and 0.01452 and 0.01667 and 0.00733
- PR8 M2 gene expression qPCR, ave [8, 19]: 0.01399
- PR8 PB1 gene expression qPCR, ave [8, 19]: 0.009536
- PR8 PB2 gene expression qPCR, ave [8, 19]: 0.01448
- PR8 M2 gene expression qPCR, individual replicates [8, 20]: 0.006766 and 0.02094 and 0.01741 and 0.01624 and 0.02057 and 0.01274 and 0.01424 and 0.01232 and 0.004647
- PR8 PB1 gene expression qPCR, individual replicates [8, 20]: 0.005288 and 0.01134 and 0.00694 and 0.008199 and 0.02025 and 0.01044 and 0.005541 and 0.01144 and 0.006386
- PR8 PB2 gene expression qPCR, individual replicates [8, 20]: 0.00629 and 0.02178 and 0.01747 and 0.01955 and 0.0211 and 0.01165 and 0.01377 and 0.01287 and 0.005833
- relative mRNA level of Nqo1 compared with DMSO [9]: significantly upregulated
- NQO1 Canis lupus mRNA, ave ([9]; virus + (PR8)): 2.213
- NQO1 Canis lupus mRNA, individual replicates ([9]; virus + (PR8)): 2.486 and 2.782 and 2.118 and 2.457 and 1.645 and 1.778 and 1.772 and 2.442 and 2.434
- NQO1 Canis lupus mRNA, ave ([9]; virus -): 1.91
- NQO1 Canis lupus mRNA, individual replicates ([9]; virus -): 1.8342 and 2.199 and 2.0999 and 1.939 and 1.851 and 1.6659 and 2.003 and 1.832 and 1.767
- relative mRNA level of Nqo1 compared with DMSO ([9]; without A/PR/8/34 virus, 12.5 μM, 24 h): significantly upregulated
- inhibition of hemagglutination of chicken red blood cells [10]: did not inhibit
- naphthol blue-black staining of infected cells [11]: not stained
- virus-induced upregulation of Ifn-β mRNA [12]: significantly reduced
- MDCK IFN-b mRNA, ave ([12]; virus +): 3.367
- MDCK IFN-b mRNA, individual replicates ([12]; virus +): 2.6311 and 8.162 and 4.8 and 5.795 and 3.073 and 1.349 and 1.382 and 0.9842 and 2.128
- MDCK IFN-b mRNA, ave ([12]; virus -): 1.794
- MDCK IFN-b mRNA, individual replicates ([12]; virus -): 0.2606 and 0.6947 and 2.008 and 8.353 and 0.6874 and 0.5651 and 1.697 and 0.7342 and 1.151
- viral titer of culture media, ave ([13]; A/PR/8/34 (PR8), 12.5uM, 12h, average of #1-3 exp (n=9)): 23333.3
- viral titer of conditioned media compared with DMSO ([13]; A/PR/8/34, 12.5 μM, 12–72 h): significantly reduced
- inhibition of trypsin digestion of recombinant HA protein [14]: did not inhibit
- percentage of influenza A NP-positive cells relative to DMSO ([15]; A/PR/8/34, 3.1 μM, 24 h, Fig 4B): significantly reduced
- NP/DAPI (%) ave ([15]; A/PR/8/34, 3.13 uM): 3.314%
- NP/DAPI (%) ave ([15]; A/PR/8/34, 6.25 uM): 1.176%
- percentage of influenza A NP-positive cells compared with the 5-treatment ([15]; A/PR/8/34, 6.3 μM, 24 h, Fig 4B): significantly reduced
- NP/DAPI (%) ave ([15]; A/PR/8/34, 12.5 uM): 0.5619%
- NP/DAPI (%) ([15]; A/PR/8/34, 12.5 uM, listed as (+)-S-Bakuchiol): 1.274% and 0.625% and 0.6742% and 0.2454% and 0.2653% and 0.5128% and 0.5703%
- NP/DAPI (%) ([15]; A/PR/8/34, 12.5 uM, listed as (+)-S-bakuchiol): 0.4184%
- NP/DAPI (%) ave ([15]; A/PR/8/34, 25 uM): 0.5226%
- percentage of influenza A NP-positive cells relative to DMSO ([15]; A/PR/8/34, 6.3–12.5 μM, 24 h, Fig 4B): significantly reduced
- IC50 ([15]; Influenza A virus, PR/8, MDCK, read-out: half maximal (50%) inhibitory concentration (IC50)): 2100 ± 1200 nM
